Values of other authors as cited in publication PMC7395068, “The evolution of strategies to minimise the risk of human drug-induced liver injury (DILI) in drug discovery and development” (Archives of Toxicology, 2020).
Like-named read-outs stand apart in the source and are kept apart here. Where a SMILES comes first, the peptide text is derived from it. [ ]: non-standard residue; d: D form. d(hArg(Et2)) = CCN=C(NCC)NCCCC[C@@H](N)C(=O)O; hArg(Et2) = CCN=C(NCC)NCCCC[C@H](N)C(=O)O; dPhe(4-Cl) = N[C@H](Cc1ccc(Cl)cc1)C(=O)O; d2Nal = N[C@H](Cc1ccc2ccccc2c1)C(=O)O; d3Pal = N[C@H](Cc1cccnc1)C(=O)O

Settings: cited from earlier work
[1] = binary in vivo human DILI call, ref Chen 2016
[2] = human DILI, LTKB DILIrank category, ref Chen 2016

| Compound | DILI +VE (5-8), DILI -VE (-4) [1] | DILI severity category [2] | DILI +VE (5-8), DILI -VE (-4) (in vivo) | DILI severity category (in vivo) |
| --- | --- | --- | --- | --- |
| CC(C)c1cccc(C(C)C)c1OCOP(=O)(O)O [fospropofol] | +VE | vLess-DILI-Concern |  |  |
| CN[C@@H]1CCc2[nH]c3ccc(C(N)=O)cc3c2C1 [frovatriptan] | -VE | vNo-DILI-Concern |  |  |
| C[C@]12CC[C@@H]3c4ccc(O)cc4C[C@@H](CCCCCCCCC[S+]([O-])CCCC(F)(F)C(F)(F)F)[C@H]3[C@@H]1CC[C@@H]2O (some centres unmarked) [fulvestrant] | -VE | Ambiguous DILI-concern |  |  |
| CNC[C@H](O)[C@@H](O)[C@H](O)[C@H](O)CO.CNC[C@H](O)[C@@H](O)[C@H](O)[C@H](O)CO.O=C([O-])CN(CCN(CC(=O)[O-])CC(=O)O)CCN(CC(=O)O)C(COCc1ccccc1)C(=O)[O-].[Gd+3] (centres unmarked) [gadobenate dimeglumine] |  |  | -VE | vNo-DILI-Concern |
| CNC(=O)CN(CCN(CCN(CC(=O)[O-])CC(=O)NC)CC(=O)[O-])CC(=O)[O-].[Gd+3] [gadodiamide] |  |  | -VE | Ambiguous DILI-concern |
| O=C([O-])CN(CCN(CC(=O)[O-])CC(COP(=O)([O-])OC1CCC(c2ccccc2)(c2ccccc2)CC1)N(CC(=O)[O-])CC(=O)[O-])CC(=O)[O-].[Gd+3].[Na+].[Na+].[Na+] (centres unmarked) [gadofosveset trisodium] |  |  | -VE | vNo-DILI-Concern |
| CNC[C@H](O)[C@@H](O)[C@H](O)[C@H](O)CO.CNC[C@H](O)[C@@H](O)[C@H](O)[C@H](O)CO.O=C([O-])CN(CCN(CC(=O)[O-])CC(=O)O)CCN(CC(=O)[O-])CC(=O)O.[Gd+3] [gadopentetate dimeglumine] |  |  | -VE | vNo-DILI-Concern |
| CC(O)CN1CCN(CC(=O)[O-])CCN(CC(=O)[O-])CCN(CC(=O)[O-])CC1.[Gd+3] (centres unmarked) [gadoteridol] |  |  | -VE | vNo-DILI-Concern |
| COCCNC(=O)CN(CCN(CCN(CC(=O)[O-])CC(=O)NCCOC)CC(=O)[O-])CC(=O)[O-].[Gd+3] [gadoversetamide] |  |  | -VE | vNo-DILI-Concern |
| O=[N+]([O-])[O-].O=[N+]([O-])[O-].O=[N+]([O-])[O-].[Ga+3] [gallium nitrate] | -VE | Ambiguous DILI-concern |  |  |
| O=C(O)CCCO [gamma hydroxybutyric acid] | -VE | vNo-DILI-Concern |  |  |
| CCN=C(NCC)NCCCC[C@H](NC(=O)[C@H](CC(C)C)NC(=O)[C@@H](CCCCNC(=NCC)NCC)NC(=O)[C@H](Cc1ccc(O)cc1)NC(=O)[C@H](CO)NC(=O)[C@@H](Cc1cccnc1)NC(=O)[C@@H](Cc1ccc(Cl)cc1)NC(=O)[C@@H](Cc1ccc2ccccc2c1)NC(C)=O)C(=O)N1CCC[C@H]1C(=O)N[C@H](C)C(N)=O [ganirelix acetate] (Ac-[d2Nal][dPhe(4-Cl)][d3Pal]SY[d(hArg(Et2))]L[hArg(Et2)]P[dA]-NH2) |  |  | -VE | vNo-DILI-Concern |
| Nc1ccn([C@@H]2O[C@H](CO)[C@@H](O)C2(F)F)c(=O)n1 [gemcitabine] | +VE | vMost-DILI-Concern |  |  |
| CC(C)C[C@H](NC(=O)[C@@H](COC(C)(C)C)NC(=O)[C@H](Cc1ccc(O)cc1)NC(=O)[C@H](CO)NC(=O)[C@H](Cc1c[nH]c2ccccc12)NC(=O)[C@H](Cc1cnc[nH]1)NC(=O)[C@@H]1CCC(=O)N1)C(=O)N[C@@H](CCCNC(=N)N)C(=O)N1CCC[C@H]1C(=O)NNC(N)=O [goserelin] | -VE | Ambiguous DILI-concern |  |  |
| CN1C2CCCC1CC(NC(=O)c1nn(C)c3ccccc13)C2 (centres unmarked) [granisetron] | -VE | Ambiguous DILI-concern |  |  |
| N=C(N)NC(=O)Cc1c(Cl)cccc1Cl [guanfacine] | -VE | Ambiguous DILI-concern |  |  |

| Compound | DILI +VE (5-8), DILI -VE (-4) [1] | DILI severity category [2] | DILI +VE (5-8), DILI -VE (-4) (in vivo) | DILI severity category (in vivo) |
| --- | --- | --- | --- | --- |
| N=C(N)N [guanidine] |  |  | -VE | Ambiguous DILI-concern |
| CCCCCCCCCC(=O)OC1(c2ccc(Cl)cc2)CCN(CCCC(=O)c2ccc(F)cc2)CC1 [haloperidol decanoate] | -VE | Ambiguous DILI-concern |  |  |
| NCCc1cnc[nH]1.O=P(O)(O)O.O=P(O)(O)O [histamine diphosphate] |  |  | -VE | vNo-DILI-Concern |
| CCNC(=O)[C@@H]1CCCN1C(=O)[C@H](CCCNC(=N)N)NC(=O)[C@H](CC(C)C)NC(=O)[C@@H](Cc1cn(Cc2ccccc2)cn1)NC(=O)[C@H](Cc1ccc(O)cc1)NC(=O)[C@H](CO)NC(=O)[C@H](Cc1c[nH]c2ccccc12)NC(=O)[C@H](Cc1cnc[nH]1)NC(=O)[C@@H]1CCC(=O)N1 [histrelin acetate] | -VE | Ambiguous DILI-concern |  |  |
| C/C1=C2/[N-][C@H]([C@H](CC(N)=O)[C@@]2(C)CCC(=O)NC[C@@H](C)OP(=O)([O-])O[C@H]2[C@@H](O)[C@@H](n3cnc4cc(C)c(C)cc43)O[C@@H]2CO)[C@]2(C)N=C(/C(C)=C3N=C(/C=C4N=C1[C@@H](CCC(N)=O)C\4(C)C)[C@@H](CCC(N)=O)[C@]\3(C)CC(N)=O)[C@@H](CCC(N)=O)[C@]2(C)CC(N)=O.[Co+3].[OH-] [hydroxocobalamin] | -VE | Ambiguous DILI-concern |  |  |
| CCN(CCO)CCCC(C)Nc1ccnc2cc(Cl)ccc12 (centres unmarked) [hydroxychloroquine] | +VE | vLess-DILI-Concern |  |  |
| CCCCCC(=O)O[C@]1(C(C)=O)CC[C@H]2[C@@H]3CCC4=CC(=O)CC[C@]4(C)[C@H]3CC[C@@]21C [hydroxyprogesterone caproate] | -VE | Ambiguous DILI-concern |  |  |
| CCCCCN(C)CCC(O)(P(=O)(O)O)P(=O)(O)O [ibandronate] | -VE | vNo-DILI-Concern |  |  |
| CCCCCCCN(CC)CCCC(O)c1ccc(NS(C)(=O)=O)cc1 (centres unmarked) [ibutilide] |  |  | -VE | vNo-DILI-Concern |
| COc1cc(C(C)=O)ccc1OCCCN1CCC(c2noc3cc(F)ccc23)CC1 [iloperidone] | -VE | Ambiguous DILI-concern |  |  |
| CC1Cc2ccccc2N1NC(=O)c1ccc(Cl)c(S(N)(=O)=O)c1 (centres unmarked) [indapamide] | -VE | Ambiguous DILI-concern |  |  |
| CC1(C)C(/C=C/C=C/C=C/C=C2\N(CCCCS(=O)(=O)O)c3ccc4ccccc4c3C2(C)C)=[N+](CCCCS(=O)(=O)[O-])c2ccc3ccccc3c21 [indocyanine green] | -VE | vNo-DILI-Concern |  |  |
| O=C(CCCCC(=O)Nc1c(I)cc(I)c(C(=O)O)c1I)Nc1c(I)cc(I)c(C(=O)O)c1I [iodipamide meglumine] | -VE | vNo-DILI-Concern |  |  |
| CNC(=O)c1c(I)c(NC(C)=O)c(I)c(C(=O)O)c1I [iothalamate sodium] | -VE | vNo-DILI-Concern |  |  |
| CCc1c2c(nc3ccc(OC(=O)N4CCC(N5CCCCC5)CC4)cc13)-c1cc3c(c(=O)n1C2)COC(=O)[C@]3(O)CC [irinotecan] |  |  | +VE | vLess-DILI-Concern |
